Assay results published in patent publication US10640748B2, “Oligodendroglial cell culturing methods and in methods for treating neurodegenerative disorders by using thyroid hormones or analogues” (NeuOrphan Pty Ltd, priority 2014, dated 2020).

How the values were obtained:
[1] = system: H9-derived hOPCs (Merck/Millipore); experiment: Microarray analysis of H9-derived hOPC mixed neural cultures treated with DITPA; format: cell-based, human; details: 48 hours
Experimental: H9-derived hOPCs (Merck/Millipore) were differentiated for 4 weeks and the following treatments were administered to the cells for 48 hours: Medium with 0.01% absolute ethanol control; 1 ng/mL DITPA (DITPA 1 ng/mL); 10 ng/mL DITPA (DITPA 10 ng/mL); or 100 ng/mL DITPA (DITPA 100 ng/mL). 1 μg of collected mRNA from each population was hybridized to Human HT-12 v3.0 Gene Expression BeadChip (Illumina) according to the manufacturer's instruction (For detailed procedure see Supplemental Experimental Procedures).
H9-derived commercially available human neural precursors were cultured and differentiated according to the manufacturer's protocol (Human OPC differentiation kit, Millipore). Briefly, undifferentiated cells were maintained on 4% growth factor-reduced Matrigel (BD Biosciences) for a week in manufacturer provided expansion medium then differentiated on poly-L-ornithine (10 μg/mL, Sigma-Aldrich) and mouse laminin (10 μg/mL, Life Technologies) coated plates for 4 weeks in manufacturer provided medium.
Raw signal intensity values were subjected to variance stabilization transformation including background correction, log2 transformation and variance stabilization using the lumiR package of R Bioconductor (Du et al., 2008). Since there were fewer arrays of common genes detected in DITPA 100 ng/mL compared to DITPA 1 ng/mL and 10 ng/mL versus ethanol control, all analyses were performed without DITPA 100 ng/mL. Hierarchical clustering with centroid linkage clustering was performed. ANOVA analyses of normalized probe intensity values were performed in Partek Genomic Suite (Partek). ANOVA was used to calculate the significance of variation in normalized expression values between sample-groups, and fold change of gene expression was calculated as mean ratio. Absolute fold changes of 1.5 or more were defined as differentially expressed. Gene ontology enrichment analysis was performed on the list of differentially expressed probes in Partek.

[2] = system: rat retinal ganglion cells (RGCs) and Nkx2.1-GFP+ sorted OPCs; experiment: Co-culture and myelination assay with rat RGC and hESC-derived OPCs; format: cell-based, rat; human
From the text: Retinae were dissected from P6 Sprague-Dawley rat pups (AEC #1121/2011/M). RGCs were purified according to the published immunopanning protocol (Deliyanti and Wilkinson-Berka, 2015; Watkins et al., 2008). Details of the RGC preparation are described in Supplemental Experimental Procedure. The RGC growth medium was changed every third day and cultures were maintained for 9 days. Pre-OLs from Nkx2.1-GFP+ cells at stage VI day 10, were FACS sorted according to O4 antibody labeling. O4+ sorted cells were then co-cultured with RGCs at a density of 20,000/well under 3 different conditions: T3 with 0.01% ethanol, 10 ng/mL DITPA, and 40 ng/mL T3 with DITPA in myelination medium (see Supplemental Experimental Procedure). The medium was changed every 3 days and all co-cultures were fixed after 7 days, followed by immunocytochemistry. Cells were stained with a monoclonal rat anti-mCherry (Life Technologies, M11217, 1:1,000); monoclonal mouse anti-NF-200 (Sigma-Aldrich, N0142, 1:200); and polyclonal rabbit anti-MBP (Millipore, AB980, 1:200). Followed by incubation of appropriate Alexa Fluor-labeled secondary antibodies (Life technologies).
In RGC-OPC co-cultures, myelin segments were counted manually. 10 fields (×20 objective) were randomly selected and captured from each coverslip with a confocal microscope (Nikon A1 inverted). For representative images, 10 z-stack images (0.25 μm intervals) were captured, analysed and processed for 3D volume rendering by Imaris version 7.6.4. OLs were scored according to their morphology and defined as either “resting” (processes not touching axons); “contacting” (processes touching axons but not wrapping); and “ensheathing” (processes aligned with and wrapping axons). A myelination index (i.e. axons myelinated) was calculated by: the number of MBP+ membrane, ensheathing the NF200+ axons/the total number of NF200+ axons.
The dissected retinae were digested using papain dissociation system according to the manufacturer's protocol (Worthington). […]

slc16a2-/- zebrafish = details: cited from earlier work
[3] = 1 and 10 ng/mL, vs ethanol control

O=C(O)CCc1cc(I)c(Oc2ccc(O)cc2)c(I)c1 [DITPA, 3,5-Diiodothyropropionic acid]
ASCL1 expression (oligodendroglial enriched transcription factor) [1, 3]: up-regulation
CRYM (μ-crystallin) expression [1, 3]: down-regulation
DIO3OS expression [1, 3]: up-regulation
DIO3 expression [1, 3]: up-regulation
MYT1 expression (oligodendroglial enriched transcription factor) [1, 3]: up-regulation
RARA expression [1, 3]: up-regulation
RARRES3 expression [1, 3]: down-regulation
astrocyte and neuron enriched transcription factors regulated [1, 3]: minimal
thrb expression [1, 3]: up-regulation
commonly regulated genes ([1]; DITPA at 1 ng/mL and 10 ng/mL vs ethanol control): 3385
up-regulation of metallothionein (MT1A) ([1]; upon DITPA treatment): ~8 fold
up-regulation of p53 ([1]; upon DITPA treatment): ~2 fold
up-regulation of reprimo (RPRM) ([1]; upon DITPA treatment): ~13 fold
percentage of myelination (number of myelinated axons/total number of axons) ([2]; 7 days co-culture, 10 ng/mL DITPA, compared with T3 alone): significantly enhanced
contacting or ensheathing MBP+ OLs ([2]; 7 days co-culture, 10 ng/mL DITPA, versus T3 alone): more
myelination of rat retinal ganglion cells ([2]; FIG. 6): Depicts an experiment which shows that DITPA promotes the myelination of rat
locomotor behavioral outcomes (slc16a2-/- zebrafish): restored
myelin deficiencies (slc16a2-/- zebrafish): restored
